In patent US5990078A, “Means of increasing estrogen receptor levels in neural tissue” (The Trustees of Columbia University in the City of New York, priority 1996, dated 1999):
Entries after “also recorded” stand apart in the source; their conditions may differ. Each block holds one molecule with its values, some of them ahead of it.

Experiments:
estrogen receptor [1] = target: T1, estrogen receptor (Homo sapiens, UniProt P03372); test: Scatchard analysis of [3H]-moxestrol binding, MCF7 cells
T1 construct: Scatchard analysis on sectioned hypothalamic tissue and MCF7 cells using this protocol; endogenous in cells; host or cells: MCF-7 cells
T1 sequence (P03372 1-595): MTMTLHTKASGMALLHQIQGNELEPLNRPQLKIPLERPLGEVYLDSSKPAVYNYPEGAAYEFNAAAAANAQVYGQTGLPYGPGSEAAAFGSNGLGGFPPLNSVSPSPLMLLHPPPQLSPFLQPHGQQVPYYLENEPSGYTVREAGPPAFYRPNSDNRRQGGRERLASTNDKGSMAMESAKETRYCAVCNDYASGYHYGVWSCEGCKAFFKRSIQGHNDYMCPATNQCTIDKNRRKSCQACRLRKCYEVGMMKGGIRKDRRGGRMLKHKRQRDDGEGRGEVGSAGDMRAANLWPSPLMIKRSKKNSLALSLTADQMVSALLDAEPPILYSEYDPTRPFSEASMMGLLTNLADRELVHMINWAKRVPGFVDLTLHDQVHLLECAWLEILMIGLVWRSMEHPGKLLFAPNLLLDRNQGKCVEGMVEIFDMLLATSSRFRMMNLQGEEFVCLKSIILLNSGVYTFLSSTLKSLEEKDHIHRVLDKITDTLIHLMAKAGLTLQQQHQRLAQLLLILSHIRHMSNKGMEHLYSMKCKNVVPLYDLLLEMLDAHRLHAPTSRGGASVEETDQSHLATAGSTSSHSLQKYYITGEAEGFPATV
Procedure: (§1) Nuclear receptor binding sites were identified using previously published protocols (Sohrabji et al., 1994a,b) and were standardized for this experiment using both MCF-7 cells and hypothalamic tissue. Cortical and basal forebrain cultures were maintained for 8 days in vitro. At the end of this period, cultures were incubated for 2 h at 34° C. with […] [^3 H]-moxestol (R2858; specific activity 80 Ci/mmol) in feed (phenol red free RPMI+10% gelded horse serum). The gelded horse serum had undetectable levels of estrogens, androgens, and progesterone (see tissue culture protocol), so that there were no endogenous steroids to compete with the nuclear binding of moxestrol. Control cultures were exposed to [^3 H]-moxestrol in the presence of an excess (2 mM) of unlabeled diethyl stilbestrol (DES), a synthetic estrogen. The radioligand-containing feed was then removed and the cultures washed and harvested for nuclear pellets by sucrose gradient density centrifugation at 4° C. Radioactivity was eluted from nuclear pellets with 95% ethanol (moxestrol is completely soluble in >50% ethanol) and the radioactivity counted in a liquid scintillation counter. […] Specific binding was determined as the difference between total binding and non-specific binding (in the presence of an unlabeled competing ligand) and the data expressed as femtomoles of specifically bound [^3 H] -moxestrol/mg DNA. […]

estrogen receptor [2] = target: T2, estrogen receptor (Rattus norvegicus, UniProt P06211); test: Scatchard analysis of [3H]-moxestrol binding, P14 hypothalamus; set-up: endogenous in cells
T2 sequence (P06211 1-600): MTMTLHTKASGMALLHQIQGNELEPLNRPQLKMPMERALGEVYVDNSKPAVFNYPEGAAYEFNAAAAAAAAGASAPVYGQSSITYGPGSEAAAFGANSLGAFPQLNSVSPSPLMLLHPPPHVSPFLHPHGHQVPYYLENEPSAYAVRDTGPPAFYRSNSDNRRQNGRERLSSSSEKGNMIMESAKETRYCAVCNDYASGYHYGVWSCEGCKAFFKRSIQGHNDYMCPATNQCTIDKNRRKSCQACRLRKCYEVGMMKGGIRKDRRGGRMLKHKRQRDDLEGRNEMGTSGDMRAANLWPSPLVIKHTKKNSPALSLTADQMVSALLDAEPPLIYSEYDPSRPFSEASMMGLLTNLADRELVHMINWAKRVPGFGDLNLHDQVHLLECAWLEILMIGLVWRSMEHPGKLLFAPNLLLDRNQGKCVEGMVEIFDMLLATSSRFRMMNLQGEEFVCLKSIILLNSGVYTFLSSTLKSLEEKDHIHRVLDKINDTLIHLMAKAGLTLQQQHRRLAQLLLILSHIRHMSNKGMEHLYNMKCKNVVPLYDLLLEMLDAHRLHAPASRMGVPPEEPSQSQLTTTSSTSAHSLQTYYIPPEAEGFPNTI
Procedure: as §1

estrogen receptor mRNA = test: In situ hybridization for estrogen receptor mRNA in PC12 cells; type: cell-based, rat; details: NGF-treated (14 days, >2 weeks)
Text: Estrogen receptor mRNA was identified using a previously described unique 48-base oligonucleotide sequence, identical to a region within the ligand-binding domain of the rat uterine estrogen receptor [51] and with less than 25% homology with the other members of the steroid receptor superfamily of DNA binding proteins. The probes were 3' end-labeled with digoxigenin-deoxyuridine-triphosphate using terminal deoxynucleotidyl transferase (BRL).
In situ hybridization histochemistry for the estrogen receptor was performed according to the procedure described in Miranda and Toran-Allerand [71]. Briefly, paraformaldehyde-fixed cultures were hybridized with digoxigenin-labeled oligonucleotide for 16-18 hours, washed extensively and later incubated with antidigoxigenin antibody conjugated to alkaline phosphatase (Boehringer Mannheim). RNA-oligonucleotide hybrids were visualized with a blue color reaction (nitroblue tetrazolium salt/5-bromo-4-chloro-3-indolyl-phosphate) catalyzed by antibody-conjugated alkaline-phosphatase. Color reaction was terminated for all groups when color appeared fully developed in one condition. Coverslips were dehydrated briefly, cleared in Histoclear (National Diagnostics) and coverslipped in Permount. […]

estrogen receptor [3] = target: T2, estrogen receptor; test: Nuclear exchange assay: specific nuclear estrogen binding in PC12 cells; type: cell-based; set-up: endogenous in cells; details: for Nuclear estrogen binding after 4 days of NGF treatment: 4 days NGF
Procedure: In these experiments, fetal calf serum, which contains physiologic levels of estrogen, (32 pg/ml) was not used.
Estrogen binding was estimated by a modification of the nuclear exchange assay. […] Groups receiving estrogen were deprived of the steroid 24 h prior to the assay. […] Tubes were then centrifuged briefly (5 mins, 14000 g) to recover a pellet and washed (3×) in the same buffer, excluding Triton X. Since the estrogen receptor is a nuclear receptor, in some experiments a sucrose gradient protocol was employed to ensure a clean nuclear pellet. […] This mixture was then carefully layered over a buffer containing 1.8 M sucrose and centrifuged for 90 mins, at 15,000 g at 4° C., and the nuclear pellet recovered from the bottom of the tube. […] Specific binding was determined as the difference between total binding and non-specific binding (in the presence of an unlabeled competing ligand). […] Group differences were evaluated using one way analysis of variance with Student-Newman-Keuls test of planned post-hoc comparisons. Differences were considered significant at the 0.05 level.
A modification of the nuclear exchange assay was used to determine the presence of estrogen binding sites in nuclear pellets of PC12 cells.

estrogen receptor [4] = target: T2, estrogen receptor; set-up: endogenous in cells; details: NGF-sensitive PC12 cells (Sohrabji et al., 1994a); cited from earlier work
p75^NGFR mRNA = test: Northern blot analysis of p75NGFR mRNA in PC12 cells; type: cell-based, rat; details: PC12 cells, NGF treatment
Procedure: PC12 cells were cultured on collagen-coated coverslips or tissue culture dishes in phenol red-free RPMI 1640 (Gibco BRL) nutrient medium supplemented with 10% (heat-inactivated) gelded (steroid-deficient) horse serum (JRH Biological), according to a modification of standard procedures. In these experiments, fetal calf serum, which contains physiologic levels of estrogen, (32 pg/ml) was not used.
Total RNA, prepared by a modification of the Chomczynski and Sacchi method, was size-fractionated (10-20 μg/lane) on a 1.2% agarose-18% formaldehyde gel and capillary-transferred to nylon membrane (Hybond-N; Amersham). Filters were prehybridized (4-18 h) and hybridized (36-40 h) at 42° C. in 50% Formamide, 3× SSC, 0.1M Tris, 5× Denhardt's and 10% Dextran Sulfate. Probes were labeled with [α-^32 P]-dCTP by the random priming procedure (Random Priming kit, Boehringer Mannheim). trkA mRNA was identified by hybridization with pDM97, a 450 bp trkA-specific probe corresponding to the extracellular and transmembrane domains of the trkA gene [67; gift of L. F. Parada, NCI-FCRDC]. p75^NGFR was probed by hybridization with p5b, a 2 Kb probe corresponding to the extracellular domain of the p75^NGFR gene. Blots were washed first in 0.2×SSC and 0.5% SDS briefly at room temperature and then for 2 h at 60° C., with frequent changes of wash buffer. Filters were then exposed to film (Kodak X-Omat) between intensifying screens and stored at -70° C. for 1-4 days before developing.
Using a standard densitometry package (Jandel Scientific), optical density measurements were obtained from X-ray film. trkA and p75^NGFR transcript densities were normalized to an internal control to account for variation in the amount of RNA loaded.
Total RNA was analyzed by Northern blot analyses, using ^32 P-labeled cDNA probes for trkA and p75^NGFR.

PC12-E2 cells = test: Morphological study of neurite growth in PC12-E2 cells; type: cell-based
Text: It has been previously reported that wild-type, differentiated PC12 pheochromocytoma cells express very low levels of estrogen receptors. Here it is reported that a PC12 cell variant, PC12-E2 (Wu, Bradshaw, J. Cell Physiol. 164:1995), is estrogen responsive and expresses high estrogen receptor level (≈50% of the levels observed in estrogen receptor over-expressing MCF-7 cells). Moreover, although tyrosine phosphorylation of the estrogen receptor appeared to be expressed constitutively, these cells responded to added estrogen. PC12-E2 responsiveness to estrogen was determined morphologically and by measuring estradiol-induced ERK activation. […] Preliminary co-precipitation experiments show an association between src and estrogen receptor, src with MEK (MAP Kinase/ERK-activating Kinase), and MEK with B-raf, MEK, which phosphorylates the ERKs on tyrosine residues, is known to exist as a complex consisting of at least hsp90 and B-raf.

estrogen receptor [5] = test: Tyrosine phosphorylation of the estrogen receptor, cortical explants; type: cell-based
Procedure: Estrogen and the neurotrophins have important roles in the developing and adult central nervous system (CNS). […] The hypothesis that estrogen/neurotrophin receptor co-expression leads to reciprocal regulation at the level of signal transduction, through cross-coupling of converging estrogen and neurotrophin signaling pathways whose end-points in the nucleus may be the very same genes was tested. Postnatal day 2 cerebral cortex was maintained as organotypic explants in roller tube culture for 7 days.

[6] = read-out: Dissociation constant (Kd)

Maximal binding (Bmas) (estrogen receptor [1]): 1800-2500 fmol/mg DNA
Kd (estrogen receptor [1]; [6]): 0.7 to 0.78 nM
Maximal binding (Bmas) (estrogen receptor [2]): 310 fmol/mg DNA
Kd (estrogen receptor [2]; [6]): 0.86 nM
Molecule: C#C[C@]1(O)CC[C@H]2[C@@H]3CCc4cc(O)ccc4[C@H]3[C@@H](OC)C[C@@]21C [[^3 H]-moxestrol, 11β-methoxy-[^3 H]-moxestrol]

Increase in specific nuclear estrogen binding vs naive (untreated) cells (estrogen receptor [3]; NGF for 3 weeks (21 days)): sixfold
Nuclear estrogen binding after 1 day of NGF exposure (estrogen receptor [3]; time course, 1 day NGF): No increase was observed
Nuclear estrogen binding after 4 days of NGF treatment (estrogen receptor [3]; time course, listed as nerve growth factor): double
Tyrosine phosphorylation of the estrogen receptor (estrogen receptor [5]): induced tyrosine phosphorylation
Molecule: NGF: nerve growth factor, member of the neurotrophin family of growth factors
Hybridization to estrogen receptor probe (estrogen receptor mRNA): strongly hybridize
Nuclear estrogen binding after 4 days of NGF treatment (estrogen receptor [3]; time course): noticeable elevation; also recorded: increase in estrogen binding is present as early as 4 days
Increase in estrogen binding sites (estrogen receptor [4]): sixfold
p75NGFR mRNA vs untreated controls (p75^NGFR mRNA): increase
Neurite outgrowth (PC12-E2 cells): extensive and rapid
Time to induction of neurite outgrowth (PC12-E2 cells): ≤ 24 h

Tyrosine phosphorylation of the estrogen receptor (estrogen receptor [5]): not
Molecule: NT-3: neurotrophin-3

Tyrosine phosphorylation of the estrogen receptor (estrogen receptor [5]): induced tyrosine phosphorylation
B1: NT-4/5: neurotrophin-4/5 (protein, UniProt P34130 81-210, looked up)
Neurotrophin-4: GVSETAPASRRGELAVCDAVSGWVTDRRTAVDLRGREVEVLGEVPAAGGSPLRQYFFETRCKADNAEEGGPGAGGGGCRGVDRRHWVSECKAKQSYVRALTADAQGRVGWRWIRIDTACVCTLLSRTGRA

Tyrosine phosphorylation of the estrogen receptor (estrogen receptor [5]): induced tyrosine phosphorylation
B2: BDNF: brain-derived neurotrophic factor, a neurotrophin (protein, UniProt P23560 19-247, looked up)
Neurotrophic factor BDNF …: APMKEANIRGQGGLAYPGVRTHGTLESVNGPKAGSRGLTSLADTFEHVIEELLDEDQKVRPNEENNKDADLYTSRVMLSSQVPLEPPLLFLLEEYKNYLDAANMSMRVRRHSDPARRGELSVCDSISEWVTAADKKTAVDMSGGTVTVLEKVPVSKGQLKQYFYETKCNPMGYTKEGCRGIDKRHWNSQCRTTQSYVRALTMDSKKRIGWRFIRIDTSCVCTLTIKRGR
